From patent US20030040521A1, “Novel pyrimidin-4-enamine as fungicide” (priority 1998, published 2003) come the findings set out here.

Data set [1] concerns Colletotrichum Lagenarium. The experiment in a line: Action against Colletotrichum lagenarium on cucumbers. Conditions: cucumber plants, spray mixture 0.002%, infected 2 days later, evaluation 8 days after infection. It counts as in vivo. On the procedure:
Action Against Colletotrichum Lagenarium on Cucumbers After a growth period of 2 weeks, cucumber plants are sprayed with an aqueous spray mixture (concentration 0.002%) prepared from a wettable powder formulation of the test compound and infected 2 days later with a spore suspension (1.5×10^5 spores/ml) of the fungus and incubated for 36 hours at 23° C. and high humidity. Incubation is then continued at normal humidity and c. 22° C. Evaluation of the fungal infestation is made 8 days after infection.

The test system of a further data set is Venturia Naegualis. The experiment in a line: Residual-protective action against Venturia inaequalis on apples. Conditions: apple cuttings, spray mixture 0.02% a.i., infected 24 hours later, evaluation 12 days after infection. Format: in vivo. On the procedure: Residual-protective Action Against Venturia Naegualis on Apples
Apple cuttings with fresh shoots 10 to 20 cm long are sprayed to drip point with a spray mixture (0.02% a.i.) prepared from a wettable powder formulation of the test compound. The plants are infected 24 hours later with a conidia suspension of the fungus. The plants are then incubated for 5 days at 90 to 100% relative humidity and stood in a greenhouse for a further […] at 20 to 24° C. Evaluation of the fungal infestation is made 12 days after infection. Compounds of Tables 1-4 show good activity, preferably the compounds 1.72, 1.81, 1.152, 1.160, 2.11, 3.6, 4.3, 4.5, 4.6, 4.27, 4.29, 4.30, 4.36, 4.38, 4.39, 4.43, 4.45, 4.62, 4.80 and 4.111.

One may read the melting point as the temperature, or range, at which the solid turns liquid. As for `CCCCc1nc2ccc(Cl)cc2c(=NC)n1CCC` [Compound 1.72], the melting point is 58 to 60 °C. Besides, the “activity against Colletotrichum lagenarium (fungal infestation)” value in data set [1] was “good to excellent activity”. In addition, the “residual-protective activity against Venturia on apples (fungal infestation)” value (“residual-protective activity” for short) with Venturia Naegualis was “good activity”.
On to `CCCOC1=Nc2ccc(Cl)cc2C(=CN)N1CCC` [Compound 1.74, (6-chloro-2-propoxy-3-propyl-3H-quinazolin-4-ylidene)methylamine], for which the melting point was in the range of 53 to 55 °C.
Compound `CCCCc1nc2ccc(Br)cc2c(=NC)n1CCC` [Compound 1.81] gave a melting point of 61 to 64 °C. In addition, the “activity against Colletotrichum lagenarium (fungal infestation)” value in data set [1] is recorded as “good to excellent activity”. Further, the “residual-protective activity” value in the data set with Venturia Naegualis is reported as “good activity”.
`CCCN=c1c2cc(Cl)ccc2nc(OCCC)n1CCC` [Compound 1.152, (6-Chloro-2-propoxy-3-propyl-3H-quinazoline-4-ylidene)propylamine]: the melting point was 50 to 51 °C. Further, in data set [1], the “activity against Colletotrichum lagenarium (fungal infestation)” value is “good to excellent activity”. Moreover, the “residual-protective activity” value with Venturia Naegualis is given as “good activity”.
Take `CCCCN=c1c2cc(Cl)ccc2nc(OCCC)n1CCCC` [Compound 1.160]: the “activity against Colletotrichum lagenarium (fungal infestation)” value in data set [1] was “good to excellent activity”. The “residual-protective activity” value with Venturia Naegualis is on record as “good activity”.
For `CCCOc1nc2ncc(Br)cc2c(=N)n1CCC` [Compound 2.11], in that order: “good to excellent activity” and “good activity”.
As for `CCCOc1nc2c(Br)csc2c(=NC)n1CCC` [Compound 3.6], in data set [1], the “activity against Colletotrichum lagenarium (fungal infestation)” value is on record as “good to excellent activity”. Moreover, the “residual-protective activity” value in the data set on Venturia Naegualis was “good activity”.
For `CCCCc1nc2sccc2c(=N)n1CCC` [Compound 4.3], in that order: “good to excellent activity” and “good activity”.
With `CCCOc1nc2sccc2c(=N)n1CCC` [Compound 4.5], the melting point fell in the range of 61 to 63 °C. In addition, the “activity against Colletotrichum lagenarium (fungal infestation)” value in data set [1] is given as “good to excellent activity”. Further, the “residual-protective activity” value in the data set with Venturia Naegualis is “good activity”.
On to `CCCCn1c(OCCC)nc2sccc2c1=N` [Compound 4.6], for which the “activity against Colletotrichum lagenarium (fungal infestation)” value in data set [1] is listed as “good to excellent activity”. Further, in the data set with Venturia Naegualis, the “residual-protective activity” value is “good activity”.
For `CCCCc1nc2sc(Cl)cc2c(=NC)n1CCC` [Compound 4.27, (2-Butyl-6-chloro-3-propyl-3H-thieno [2,3-d]pyrimidine-4-ylidene)methylamine], in that order: “good to excellent activity” and “good activity”.
As to `CCCCn1c(OCCC)nc2sc(Cl)cc2c1=NC` [Compound 4.30], the “activity against Colletotrichum lagenarium (fungal infestation)” value in data set [1] is “good to excellent activity”. For the same compound, the “residual-protective activity” value in the data set on Venturia Naegualis is “good activity”.
Turning to `CCCOc1nc2sc(Br)cc2c(=NC)n1CCC` [Compound 4.38, (6-Bromo-3-propyl-2-propoxy-3H-thieno[2,3-d]pyrimidine-4-ylidene)methylamine], in data set [1], the “activity against Colletotrichum lagenarium (fungal infestation)” value is “good to excellent activity”. Besides, the “residual-protective activity” value in the data set on Venturia Naegualis was “good activity”.
With `CCCCn1c(OCCC)nc2sc(Br)cc2c1=NC` [Compound 4.39], the “activity against Colletotrichum lagenarium (fungal infestation)” value in data set [1] is listed as “good to excellent activity”. For the same compound, in the data set on Venturia Naegualis, the “residual-protective activity” value is listed as “good activity”.
On to `CCCCc1nc2sc(Cl)cc2c(=NCC)n1CCC` [Compound 4.43], for which, in data set [1], the “activity against Colletotrichum lagenarium (fungal infestation)” value is “good to excellent activity”. Also, the “residual-protective activity” value in the data set with Venturia Naegualis is listed as “good activity”.
Regarding `CCCOc1nc2sc(Cl)cc2c(=NCC)n1CCC` [Compound 4.45], the “activity against Colletotrichum lagenarium (fungal infestation)” value in data set [1] is reported as “good to excellent activity”. In addition, the “residual-protective activity” value in the data set on Venturia Naegualis is recorded as “good activity”.
For the compound `C=CCN=c1c2cc(Cl)sc2nc(OCCC)n1CCC` [Compound 4.62], the “activity against Colletotrichum lagenarium (fungal infestation)” value in data set [1] is “good to excellent activity”. Also, the “residual-protective activity” value in the data set with Venturia Naegualis is “good activity”.
For `C#CCN=c1c2cc(Cl)sc2nc(OCCC)n1CCC` [Compound 4.80], in that order: “good to excellent activity” and “good activity”.
On to `CCCOc1nc2sc(Cl)cc2c(=NCl)n1CCC` [Compound 4.111], for which, in data set [1], the “activity against Colletotrichum lagenarium (fungal infestation)” value is “good to excellent activity”. For the same compound, the “residual-protective activity” value in the data set with Venturia Naegualis is recorded as “good activity”.
The compound `CCCCc1nc2sc(Cl)cc2c(=NC(=O)OC)n1CCCC` [Compound 4.119, (6-chloro-2-butyl-3-butyl-3H-thieno[2,3-d]pyrimidine-4-ylidene)carbamic acid methylester] showed a melting point of 103 to 104 °C.
For `CCCOc1nc2sc(Cl)cc2c(=NC(C)=O)n1CCC` [Compound 4.137, N-(6-chloro-2-propoxy-3-propyl-3H-thieno[2,3-d]pyrimidine-4-ylidene)acetamide], the melting point lay within 101 to 103 °C.
In turn, `CCCCc1nc2sc(Cl)cc2c(=NC(C)=O)n1CCC` [Compound 4.139, N-(6-chloro-2-butyl-3-propyl-3H-thieno[2,3-d]pyrimidine-4-ylidene)acetamide] displayed a melting point of 98 to 99 °C.
